Data taken from patent publication US20170232083A1, “METHODS OF DIAGNOSIS AND TREATMENT OF CELIAC DISEASE IN CHILDREN” (priority 2014, published 2017).

Test system: PBMC (polyclonal gluten-specific T cells) of paediatric and adult CD patients
Experiment: IFN-γ ELISpot of PBMC after 3 day oral wheat challenge (SFU, % of maximal peptide response, dominance scores, EC50; Examples 5-6)
Type: cell-based, human
Conditions: for Cross-reactive T cell response: following wheat challenge
[1] = subject I (3-5yrs/6-10yrs part)
[2] = subject J (3-5yrs/6-10yrs part)
[3] = subject K (3-5yrs/6-10yrs part)
[4] = subject V (3-5yrs/6-10yrs part)
[5] = subject W (3-5yrs/6-10yrs part)
[6] = subject Y (3-5yrs/6-10yrs part)
[7] = subject five (3-5yrs/6-10yrs part)
[8] = subject seven (3-5yrs/6-10yrs part)
[9] = subject six (3-5yrs/6-10yrs part)
[10] = subject ten (3-5yrs/6-10yrs part)
[11] = subject two (3-5yrs/6-10yrs part)

| Sequence | Cross-reactive T cell response (subject A, 11-17yrs) [SFU] | Cross-reactive T cell response (subject D, 11-17yrs) [SFU] | Cross-reactive T cell response (subject E, 11-17yrs) [SFU] | Cross-reactive T cell response (subject F, 11-17yrs) [SFU] | Cross-reactive T cell response (subject G, 11-17yrs) [SFU] | Cross-reactive T cell response (subject H) [SFU] | Cross-reactive T cell response [1] [SFU] | Cross-reactive T cell response [2] [SFU] | Cross-reactive T cell response [3] [SFU] | Cross-reactive T cell response (subject P, 11-17yrs) [SFU] | Cross-reactive T cell response (subject Q, 11-17yrs) [SFU] | Cross-reactive T cell response (subject T, 11-17yrs) [SFU] | Cross-reactive T cell response (subject U, 11-17yrs) [SFU] | Cross-reactive T cell response [4] [SFU] | Cross-reactive T cell response [5] [SFU] | Cross-reactive T cell response [6] [SFU] | Cross-reactive T cell response [7] [SFU] | Cross-reactive T cell response (subject nine, 11-17yrs) [SFU] | Cross-reactive T cell response [8] [SFU] | Cross-reactive T cell response [9] [SFU] | further results |
| --- | --- | --- | --- | --- | --- | --- | --- | --- | --- | --- | --- | --- | --- | --- | --- | --- | --- | --- | --- | --- | --- |
| QPFPQPEQELPLQ | 4 | 7 | 46 | 31 | 1 | 5 | 6 | 57 | 13 | 17 | 14 | 36 | 12 | 7 | 0 | 0 | 33 | 1 | 8 | 5 | Significant response as a percentage of maximal peptide SFU (subject E, 11-17yrs): ′′ (21-40% = ′′); Significant response as a percentage of maximal peptide SFU (subject F, 11-17yrs): ′ (11-20% = ′); Significant response as a percentage of maximal peptide SFU (subject J): ′′ (21-40% = ′′); Significant response as a percentage of maximal peptide SFU (subject K): ′ (11-20% = ′); Significant response as a percentage of maximal peptide SFU (subject Q, 11-17yrs): ′ (11-20% = ′); Significant response as a percentage of maximal peptide SFU (subject T, 11-17yrs): ′′ (21-40% = ′′); Significant response as a percentage of maximal peptide SFU (subject U, 11-17yrs): ′ (11-20% = ′); Significant response as a percentage of maximal peptide SFU (subject ten): + (>70% = +); Cross-reactive T cell response [10]: 15 SFU; Cross-reactive T cell response [11]: 9 SFU |
| PEQPQPFPEQPVPQQP | 3 | 3 | 4 | 6 | 1 | 0 | 0 | 7 | 4 | 8 | 6 | 5 | 1 | 3 | 4 | 2 | 0 | 0 | 4 | 2 | Significant response as a percentage of maximal peptide SFU (subject ten): + (>70% = +); Cross-reactive T cell response [10]: 11 SFU; Cross-reactive T cell response [11]: 3 SFU |
